Experiments:
[1] = test system: retinal pigment epithelial cell line ARPE-19; assay: Reduction of reactive oxygen species (DCF-DA fluorescence microscopy) in H2O2-treated retinal pigment epithelial cells; type: cell-based; details: ARPE-19, H2O2 50 µM; metformin 1 mM (positive control)
Source text: (§1) Reactive oxygen species were generated by treating retinal pigment epithelial cell line ARPE-19 with hydrogen peroxide (H2O2).

[2] = test system: mouse model of age-related macular degeneration; assay: Short-term administration in NaIO3 mouse model of age-related macular degeneration (phalloidin-stained RPE/choroid flat mount); type: in vivo, C57BL/6 mice; details: NaIO3 20 mg/kg IV; metformin 4 mg/mL in drinking water for 7 days before NaIO3
Source text: Mice injected with sodium iodate (NaIO3) are used as a representative model of age-related macular degeneration. A mouse model of age-related macular degeneration was established by injecting NaIO3 into C57BL/6 mice, thereby inducing oxidative stress specific to retinal pigment epithelial cells and causing damage.

[3] = test system: retinal pigment epithelial cell line ARPE-19; assay: Epithelial-mesenchymal transition (cadherin 1 / vimentin, confocal microscopy) in H2O2-treated retinal pigment epithelial cells; type: cell-based; details: ARPE-19, H2O2 50 µM; metformin 1 mM (positive control)
Source text: as §1

How did the DCF-DA fluorescence intensity [1] turn out when CN(C)C(=N)N=C(N)N [metformin] was run?
Its DCF-DA fluorescence intensity is “decreased”.

What about the tight junction structure [2] of the same compound?
The tight junction structure was “maintained”.

And the epithelial-mesenchymal transition [3]?
Its epithelial-mesenchymal transition is “reduced”.
